Data from patent publication US11452717B2, “Small molecule activators of nicotinamide phosphoribosyltransferase (NAMPT) and uses thereof” (Sanford Burnham Prebys Medical Discovery Institute, priority 2017, dated 2022).

molecular target: NAMPT enzyme (Homo sapiens (Human), UniProt P43490); experiment: Enzyme Assay and NMN Detection (NAMPT reaction, fluorescence detection of NMN); type: biochemical; details: Table B-1; NAMPT activation, NMN formation
Outline: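 NMN formed was read at ex380/em460 after acetophenone/KOH derivatization and formic acid addition, using a same-day calibration curve. Final conditions: NAMPT 16 nM, nicotinamide 5 uM, PRPP 6.25 uM, ATP 120 uM, pyrophosphatase 0.04 U/ml, pH 7.5 HEPES buffer with MgCl2 and TCEP, 2 h at room temperature.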

Sequence of NAMPT enzyme (P43490 whole entry, species assumed): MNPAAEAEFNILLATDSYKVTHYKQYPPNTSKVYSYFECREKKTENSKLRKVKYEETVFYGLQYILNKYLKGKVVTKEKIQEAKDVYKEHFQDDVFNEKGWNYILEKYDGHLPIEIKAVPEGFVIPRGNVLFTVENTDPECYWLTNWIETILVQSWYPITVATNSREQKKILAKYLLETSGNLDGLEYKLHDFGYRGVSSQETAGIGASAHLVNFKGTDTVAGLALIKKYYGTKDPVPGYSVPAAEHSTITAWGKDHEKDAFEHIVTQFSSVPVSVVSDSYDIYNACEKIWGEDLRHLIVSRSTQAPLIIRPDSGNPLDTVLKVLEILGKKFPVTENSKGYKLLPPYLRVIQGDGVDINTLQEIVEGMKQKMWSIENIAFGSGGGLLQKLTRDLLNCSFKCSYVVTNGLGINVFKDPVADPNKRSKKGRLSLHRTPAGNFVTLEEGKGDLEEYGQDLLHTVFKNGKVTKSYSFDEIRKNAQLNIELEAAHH

| EC50 [µM] | SMILES |
| --- | --- |
| < 0.1 | O=C(NCc1cn[nH]c1)Nc1ccc(S(=O)(=O)N2CCc3ccccc3C2)cc1 [1-[4-(3,4-Dihydro-1H-isoquinoline-2-sulfonyl)-phenyl]-3-(1H-pyrazol-4-ylmethyl)-urea] |
| > 20 | Cc1noc(C)c1CNC(=O)Nc1ccc(S(=O)(=O)N2CCc3ccccc3C2)cc1 [1-[4-(3,4-Dihydro-1H-isoquinoline-2-sulfonyl)-phenyl]-3-(3,5-dimethyl-isoxazol-4-ylmethyl)-urea] |
| 0.1 to 2 | O=C(NCc1cnco1)Nc1ccc(S(=O)(=O)N2CCc3ccccc3C2)cc1 [1-[4-(3,4-Dihydro-1H-isoquinoline-2-sulfonyl)-phenyl]-3-oxazol-5-ylmethyl-urea] |
| 0.1 to 2 | O=C(NCc1cncs1)Nc1ccc(S(=O)(=O)N2CCc3ccccc3C2)cc1 [1-[4-(3,4-Dihydro-1H-isoquinoline-2-sulfonyl)-phenyl]-3-thiazol-5-ylmethyl-urea] |
| < 0.1 | O=C(NCc1cn[nH]c1)Nc1ccc(S(=O)(=O)c2cccc(Cl)c2)cc1 [1-[4-(3-Chloro-benzenesulfonyl)-phenyl]-3-(1H-pyrazol-4-ylmethyl)-urea] |
| < 0.1 | COc1cccc(S(=O)(=O)c2ccc(NC(=O)NCc3cn[nH]c3)cc2)c1 [1-[4-(3-Methoxy-benzenesulfonyl)-phenyl]-3-(1H-pyrazol-4-ylmethyl)-urea] |
| < 0.1 | O=C(NCc1cn[nH]c1)Nc1ccc(S(=O)(=O)c2ccc(Cl)cc2)cc1 [1-[4-(4-Chloro-benzenesulfonyl)-phenyl]-3-(1H-pyrazol-4-ylmethyl)-urea] |
| < 0.1 | COc1ccc(S(=O)(=O)c2ccc(NC(=O)NCc3cn[nH]c3)cc2)cc1 [1-[4-(4-Methoxy-benzenesulfonyl)-phenyl]-3-(1H-pyrazol-4-ylmethyl)-urea] |

same assay, conditions: Table B-2; NAMPT activation, NMN formation

| EC50 [µM] | SMILES |
| --- | --- |
| 0.1 to 2 | O=C(NCc1ccncc1)Nc1ccc(S(=O)(=O)N2CCc3ccccc3C2)cc1 [1-[4-(3,4-Dihydro-1H-isoquinoline-2-sulfonyl)-phenyl]-3-pyridin-4-ylmethyl-urea] |
| < 0.1 | COc1cccc(S(=O)(=O)c2ccc(NC(=O)NCc3ccncc3)cc2)c1 [1-[4-(3-Methoxy-benzenesulfonyl)-phenyl]-3-pyridin-4-ylmethyl-urea] |
| 0.1 to 2 | CC1Cc2ccccc2CN1S(=O)(=O)c1ccc(NC(=O)NCc2ccncc2)cc1 (stereo not shown) [1-[4-(3-Methyl-3,4-dihydro-1H-isoquinoline-2-sulfonyl)-phenyl]-3-pyridin-4-ylmethyl-urea] |
| 0.1 to 2 | O=C(NCc1ccncc1)Nc1ccc(S(=O)(=O)c2ccc(Cl)cc2)cc1 [1-[4-(4-Chloro-benzenesulfonyl)-phenyl]-3-pyridin-4-ylmethyl-urea] |
| 0.1 to 2 | COc1ccc(S(=O)(=O)c2ccc(NC(=O)NCc3ccncc3)cc2)cc1 [1-[4-(4-Methoxy-benzenesulfonyl)-phenyl]-3-pyridin-4-ylmethyl-urea] |
| 0.1 to 2 | CN1CCN(S(=O)(=O)c2ccc(NC(=O)NCc3ccncc3)cc2)CC1 [1-[4-(4-Methyl-piperazine-1-sulfonyl)-phenyl]-3-pyridin-4-ylmethyl-urea] |

same assay, conditions: Table B-4; NAMPT activation, NMN formation

| EC50 [µM] | SMILES |
| --- | --- |
| < 0.1 | O=C(NCc1cn[nH]c1)Nc1ccc(S(=O)(=O)c2cc(F)cc(F)c2)cc1 [1-[4-(3,5-Difluoro-benzenesulfonyl)-phenyl]-3-(1H-pyrazol-4-ylmethyl)-urea] |
| < 0.1 | O=C(NCc1cn[nH]c1)Nc1ccc(S(=O)(=O)c2cccc(I)c2)cc1 [1-[4-(3-Iodo-benzenesulfonyl)-phenyl]-3-(1H-pyrazol-4-ylmethyl)-urea] |
| 0.1 to 2 | O=C(NCc1cn[nH]c1)Nc1ccc(S(=O)(=O)c2ccccc2-c2cccc(Cl)c2)cc1 [1-[4-(3′-Chloro-biphenyl-2-sulfonyl)-phenyl]-3-(1H-pyrazol-4-ylmethyl)-urea] |
| < 0.1 | O=C(NCc1cn[nH]c1)Nc1ccc(S(=O)(=O)c2ccccc2-c2cccc(F)c2)cc1 [1-[4-(3′-Fluoro-biphenyl-2-sulfonyl)-phenyl]-3-(1H-pyrazol-4-ylmethyl)-urea] |
| 2 to 5 | COc1cccc(-c2ccccc2S(=O)(=O)c2ccc(NC(=O)NCc3cn[nH]c3)cc2)c1 [1-[4-(3′-Methoxy-biphenyl-2-sulfonyl)-phenyl]-3-(1H-pyrazol-4-ylmethyl)-urea] |
| 0.1 to 2 | Cc1cccc(-c2ccccc2S(=O)(=O)c2ccc(NC(=O)NCc3cn[nH]c3)cc2)c1 [1-[4-(3′-Methyl-biphenyl-2-sulfonyl)-phenyl]-3-(1H-pyrazol-4-ylmethyl)-urea] |
| 0.1 to 2 | N#Cc1ccc(S(=O)(=O)c2ccc(NC(=O)NCc3cn[nH]c3)cc2)cc1 [1-[4-(4-Cyano-benzenesulfonyl)-phenyl]-3-(1H-pyrazol-4-ylmethyl)-urea] |
| 0.1 to 2 | O=C(NCc1cn[nH]c1)Nc1ccc(S(=O)(=O)c2ccccc2-c2ccc(F)cc2)cc1 [1-[4-(4′-Fluoro-biphenyl-2-sulfonyl)-phenyl]-3-(1H-pyrazol-4-ylmethyl)-urea] |

same assay, conditions: Table B-5; NAMPT activation, NMN formation

| EC50 [µM] | SMILES |
| --- | --- |
| 0.1 to 2 | O=C(NCc1cnco1)Nc1ccc(S(=O)(=O)c2cc(F)cc(F)c2)cc1 [1-[4-(3,5-Difluoro-benzenesulfonyl)-phenyl]-3-oxazol-5-ylmethyl-urea] |
| 0.1 to 2 | COc1cccc(S(=O)(=O)c2ccc(NC(=O)NCc3cnco3)cc2)c1 [1-[4-(3-methoxy-benzenesulfonyl)-phenyl]-3-oxazol-5-ylmethyl-urea] |
| 0.1 to 2 | N#Cc1ccc(S(=O)(=O)c2ccc(NC(=O)NCc3cnco3)cc2)cc1 [1-[4-(4-Cyano-benzenesulfonyl)-phenyl]-3-oxazol-5-ylmethyl-urea] |
| 0.1 to 2 | COc1ccc(S(=O)(=O)c2ccc(NC(=O)NCc3cnco3)cc2)cc1 [1-[4-(4-Methoxy-benzenesulfonyl)-phenyl]-3-oxazol-5-ylmethyl-urea] |

same assay, conditions: Table B-6; NAMPT activation, NMN formation

| EC50 [µM] | SMILES |
| --- | --- |
| 0.1 to 2 | O=C(NCc1ccncc1)Nc1ccc(S(=O)(=O)c2cc(F)cc(F)c2)cc1 [1-[4-(3,5-Difluoro-benzenesulfonyl)-phenyl]-3-pyridin-4-ylmethyl-urea] |
| < 0.1 | O=C(NCc1ccncc1)Nc1ccc(S(=O)(=O)c2cccc(I)c2)cc1 [1-[4-(3-Iodo-benzenesulfonyl)-phenyl]-3-pyridin-4-ylmethyl-urea] |
| 0.1 to 2 | O=C(NCc1ccncc1)Nc1ccc(S(=O)(=O)c2ccccc2-c2cccc(Cl)c2)cc1 [1-[4-(3′-Chloro-biphenyl-2-sulfonyl)-phenyl]-3-pyridin-4-ylmethyl-urea] |
| < 0.1 | O=C(NCc1ccncc1)Nc1ccc(S(=O)(=O)c2ccccc2-c2cccc(F)c2)cc1 [1-[4-(3′-Fluoro-biphenyl-2-sulfonyl)-phenyl]-3-pyridin-4-ylmethyl-urea] |
| 0.1 to 2 | COc1cccc(-c2ccccc2S(=O)(=O)c2ccc(NC(=O)NCc3ccncc3)cc2)c1 [1-[4-(3′-Methoxy-biphenyl-2-sulfonyl)-phenyl]-3-pyridin-4-ylmethyl-urea] |
| 0.1 to 2 | Cc1cccc(-c2ccccc2S(=O)(=O)c2ccc(NC(=O)NCc3ccncc3)cc2)c1 [1-[4-(3′-Methyl-biphenyl-2-sulfonyl)-phenyl]-3-pyridin-4-ylmethyl-urea] |
| 0.1 to 2 | N#Cc1ccc(S(=O)(=O)c2ccc(NC(=O)NCc3ccncc3)cc2)cc1 [1-[4-(4-Cyano-benzenesulfonyl)-phenyl]-3-pyridin-4-ylmethyl-urea] |
| 5 to 20 | O=C(NCc1ccncc1)Nc1ccc(S(=O)(=O)c2ccccc2-c2ccc(Cl)cc2)cc1 [1-[4-(4′-Chloro-biphenyl-2-sulfonyl)-phenyl]-3-pyridin-4-ylmethyl-urea] |
